# Reference: patent US12370143B2, “Compound or salt thereof and lipid particles” (FUJIFILM Corporation, priority 2018, dated 2025)
# Experiments:
# [1] = Encapsulation rate of siRNA in nucleic acid lipid particles (Luc2-siRNA); assay type: physicochemical; conditions: compound/DSPC/cholesterol/DMG-PEG2000 50/10/38.5/1.5
# Outline: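 Encapsulation rate was calculated as (total − outer-phase siRNA)/total ×100. Total siRNA was quantified spectrophotometrically after lipid-dissolving ethanol precipitation, and unencapsulated siRNA by RiboGreen in TE (ex 485/em 535 nm). The particles were test lipid/DSPC/cholesterol/DMG-PEG2000 at 50/10/38.5/1.5, formed by microfluidic mixing with Luc2-siRNA at pH 4 and dialyzed against PBS.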
# [2] = Particle size of nucleic acid lipid particles (Luc2-siRNA); assay type: physicochemical; conditions: compound/DSPC/cholesterol/DMG-PEG2000 50/10/38.5/1.5
# Outline: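 Particle size was read by ELS-Z2 light scattering on nucleic acid lipid particles after dialysis against PBS. These were made by micromixing Luc2-siRNA (19.7 μmol/L, pH 4 acetate) with ethanolic lipids (test lipid/DSPC/cholesterol/DMG-PEG2000 50/10/38.5/1.5, 20 mmol/L) at 3:1 water:oil, siRNA/lipid 339 mol/mol.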
# [3] = tested on: Factor VII (FVII) protein; test: Measurement of Factor VII (FVII) protein in mouse plasma after FVII-siRNA lipid particles; assay type: in vivo, C57BL6/J mice; conditions: 0.1 mg/kg caudal vein, plasma 24 hours after administration, PBS group = 100%
# Description: (§1) The Factor VII (FVII) protein was measured according to the method described in Nature Biotechnology (2010) 28, 172-176. C57BL6/J mice were randomly grouped (n=3). A dispersion liquid of nucleic acid lipid particles was prepared by the same method as that in <Preparation of nucleic acid lipid particles>, except that FVII-siRNA having the sequence described in Molecular Therapy (2009) 17, p. 878 was used instead of Luc-siRNA. The dispersion liquid was administered to the caudal vein of the mice at a dosage of 0.1 mg/kg. For comparison, PBS at the same volume was administered to the caudal vein of the mice. Twenty four hours after the administration, blood was collected from the caudal vena cava, thereby obtaining plasma. The amount of FVII protein was quantified using the obtained plasma and a Biophen FVII assay kit (Aniara).
# The FVII amount in the plasma sample of each individual in the PBS administration group was regarded as 100%, and the ratio of the FVII amount in the plasma sample of each individual to 100% was adopted as a measurement value.
# [4] = Particle size of nucleic acid lipid particles (FVII-siRNA); assay type: physicochemical
# Description: The compounds described in Table 2, L-α-distearoylphosphatidylcholine (trade name: COATSOME® MC-8080; NOF corporation), cholesterol (trade name: Choesterol HP; NIPPON FINE CHEMICAL CO., LTD.), and 1,2-dimyristoyl-rac-glycero-3-(methylpolyoxyethylene 2000) (hereinafter, called DMG-PEG2000) (trade name: SUNBRIGHT® GM-020; NOF corporation) were dissolved in ethanol at a molar ratio of 50/10/38.5/1.5 such that the total lipid concentration became 20 mmol/L, thereby obtaining an oil phase.
# An aqueous nucleic acid solution obtained by dissolving 5 mg of Luc2-siRNA having the sequence described in Biomacromolecules (2013) 14, p. 3905 in 1 mL of sterile water was diluted with 10 mmol/L acetate buffer having a pH 4 such that the nucleic acid concentration became 19.7 μmol/L, thereby obtaining a water phase. Then, the water phase and the oil phase were mixed together by a micromixer (see JP5288254B) using a syringe pump such that the volume ratio of water phase:oil phase became 3:1 (final ratio of siRNA/lipid=339 (mol/mol)), and the mixed solution was diluted 2× with PBS, thereby obtaining a dispersion liquid of nucleic acid lipid particles. The dispersion liquid was dialyzed (Slide-A-Lyzer G2, MWCO: 10 kD, Thermo Fisher Scientific) using a phosphate buffered saline such that ethanol was removed, thereby obtaining nucleic acid lipid particles.
# The particle size of the nucleic acid lipid particles was measured by the same method as that in <Preparation of lipid particles>.
# as §1
# [5] = Nucleic acid encapsulation rate of nucleic acid lipid particles (FVII-siRNA); assay type: physicochemical
# Description: A 3 mol/L aqueous sodium acetate solution (30 μL) and 9 μL of glycogen were added to 60 μL of the lipid particles retaining nucleic acids, and then 1.5 mL of ethanol was added thereto such that only the nucleic acids were precipitated while the lipid was dissolved. Then, the supernatant was removed by centrifugation. After the precipitates were air-dried for 15 minutes or longer, water was added thereto such that the precipitates were redissolved, and the concentration thereof was measured using Nanodrop NF1000 (Thermo Fisher Scientific), thereby quantifying the total nucleic acid concentration.
# The nucleic acid concentration was quantified using a Quant-iT RiboGreen RNA Assay Kit (Thermo Fisher Scientific) according to the protocol. First, a 20×TE buffer included in the above kit was diluted with water, thereby obtaining a 1×TE buffer. TE represents Tris/EDTA (ethylenediaminetetraacetic acid). In order to quantify only the nucleic acid in the outer water phase, the dispersion liquid of lipid particles retaining nucleic acids was diluted 10,000× with the 1×TE buffer.
# The 10,000× diluted dispersion liquid of lipid particles (100 μL) was put in a 96-well plate, then 100 μL of a RiboGreen reagent (reagent included in the Quanti-iT Ribogreen RNA Assay Kit described above) diluted 2000× with the 1×TE buffer was added to a sample, and fluorescence (excitation wavelength: 485 nm, fluorescence wavelength: 535 nm) was measured using a plate reader Infinit EF200 (TECAN), thereby quantifying the nucleic acid concentration in the outer water phase.
# By using the total nucleic acid concentration obtained through the above steps and the quantified nucleic acid concentration in the outer water phase, the nucleic acid encapsulation rate of the nucleic acid lipid particles was calculated according to the following Equation. Nucleic acid encapsulation rate (%)=(total nucleic acid concentration−nucleic acid concentration in outer water phase)/total nucleic acid concentration×100 The results are shown in Table 2.
# as §1
Nucleic acid encapsulation rate [1] [%],Particle size (nm) [2] [nm],Particle size (nm) [4] [nm],Nucleic acid encapsulation rate [5] [%],Compound,Relative amount of FVII protein (%) [3] [%]
82,83.6,85.4,88,"CCCCCCCCC(CCCCCC)COC(=O)CCCC(CCCCCC)OC(=O)OCCN(CCN(CC)CC)C(C)C (stereo not shown) [Example 83, 2-Hexyldecyl 3-ethyl-12-hexyl-6-isopropyl-10-oxo-9,11-dioxa-3,6-diazahexadecan-16-oate]",13
83,68.2,77.3,94,"CCCCCCCCC(CCCCCC)COC(=O)CCCCCCCCC(CCCCCC)OC(=O)OCCN(CCN(CC)CC)C(C)C (stereo not shown) [Example 89, 2-Hexyldecyl 3-ethyl-12-hexyl-6-isopropyl-10-oxo-9,11-dioxa-3,6-diazahenicosan-21-oate]",8
81,68.9,72.3,79,"CCCCCCCCC(CCCCCC)COC(=O)CCCCCCCCC(CCCCCC)OC(=O)OCCN(CCOC(=O)CCCCCCC)CCN(CC)CC (stereo not shown) [Example 99, 2-Hexyldecyl 3-ethyl-12-hexyl-6-(2-(octanoyloxy)ethyl)-10-oxo-9,11-dioxa-3,6-diazahenicosan-21-oate]",3
90,77.3,85.4,89,"CCCCCCCCC(CCCCCC)COC(=O)CCCCCCCC(CCCCCC)OC(=O)OCCN(CCN(CC)CC)C(C)C (stereo not shown) [Example 117, 2-Hexyldecyl 3-ethyl-12-hexyl-6-isopropyl-10-oxo-9,11-dioxa-3,6-diazaicosan-20-oate]",12

# Continued, compound first:
Compound,Nucleic acid encapsulation rate [1] [%],Particle size (nm) [2] [nm],Particle size (nm) [4] [nm],Nucleic acid encapsulation rate [5] [%],Relative amount of FVII protein (%) [3] [%]
"CCCCC/C=C\C/C=C\CCCCCCCCC(CCCCCCCC/C=C\C/C=C\CCCCC)N(C)CCN(C)C [Comparative Example 9, N1-((6Z,9Z,28Z,31Z)-heptatriaconta-6,9,28,31-tetraen-19-yl)-N1,N2,N2-trimethylethane-1,2-diamine, reference compound]",84,58.4,60,71,44
"CCCCC/C=C\C/C=C\CCCCCCCCC(CCCCCCCC/C=C\C/C=C\CCCCC)OC(=O)OCCN(CCCCCC)CCN(C)C [Example 37, 2-((2-(Dimethylamino)ethyl)(hexyl)amino)ethyl((6Z,9Z,28Z,31Z)-heptatriaconta-6,9,28,31-tetraen-19-yl)carbonate]",85,80.4,74.5,100,17
"CCCCC/C=C\C/C=C\CCCCCCCCC(CCCCCCCC/C=C\C/C=C\CCCCC)OC(=O)OCCN(CCCC)CCN(C)C [Example 38, 2-(Butyl(2-(dimethylamino)ethyl)amino)ethyl((6Z,9Z,28Z,31Z)-heptatriaconta-6,9,28,31-tetraen-19-yl)carbonate]",87,94.2,67.9,100,16
"CCCCC/C=C\C/C=C\CCCCCCCCC(CCCCCCCC/C=C\C/C=C\CCCCC)OC(=O)OCCN(CCN(CC)CC)C(C)C [Example 42, 2-((2-(Diethylamino)ethyl)(isopropyl)amino)ethyl((6Z,9Z,28Z,31Z)-heptatriaconta-6,9,28,31-tetraen-19-yl)carbonate]",78,70,68.1,70,9
"CCCCCCC(CCCCCC)C(=O)OCCCCCCC(CCCCCCOC(=O)C(CCCCCC)CCCCCC)OC(=O)OCCN(CC)CCN(CC)CC [Example 77, 7-(((2-((2-(Diethylamino)ethyl)(ethyl)amino)ethoxy)carbonyl)oxy)tridecane-1,13-diylbis(2-hexyloctanoate)]",88,81.9,81.2,76,3
"CCCCCCCCCCCC(=O)OCCN(CCOC(=O)OC(CCCCCC)CCCCCCCCC(=O)OCC(CCCC)CCCCCC)CCN(CC)CC (stereo not shown) [Example 86, 2-butyloctyl 6-(2-(dodecanoyloxy)ethyl)-3-ethyl-12-hexyl-10-oxo-9,11-dioxa-3,6-diazahenicosan-21-oate]",74,67.1,69.2,88,15
"CCCCCCCC/C=C\CCCCCCCC(=O)OCCN(CCOC(=O)OC(CCCCCC)CCCCCCCCC(=O)OCC(CCCC)CCCCCC)CCN(CC)CC (stereo not shown) [Example 91, 2-Butyloctyl 3-ethyl-12-hexyl-6-(2-(oleoyloxy)ethyl)-10-oxo-9,11-dioxa-3,6-diazahenicosan-21-oate]",69,75.0,66.5,76,9
"CCCCCCCCCC(=O)OCCN(CCOC(=O)OC(CCCCCC)CCCCCCCCC(=O)OCC(CCCCCC)CCCCCCCC)CCN(CC)CC (stereo not shown) [Example 98, 2-Hexyldecyl 6-(2-(decanoyloxy)ethyl)-3-ethyl-12-hexyl-10-oxo-9,11-dioxa-3,6-diazahenicosan-21-oate]",82,74.9,68.3,76,2
"CCCCCCCC(=O)OCCN(CCOC(=O)OC(CCCCCC)CCCC(=O)OCC(CCCC)CCCCCC)CCN(CC)CC (stereo not shown) [Example 108, 2-Butyloctyl 3-ethyl-12-hexyl-6-(2-(octanoyloxy)ethyl)-10-oxo-9,11-dioxa-3,6-diazahexadecan-16-oate]",81,78.7,78.8,90,3
"CCCCCCCCCC(CCCCCCCCC)COC(=O)CCCC(CCCCCC)OC(=O)OCCN(CCN(CC)CC)C(C)C (stereo not shown) [Example 124, 2-Nonylundecyl 3-ethyl-12-hexyl-6-isopropyl-10-oxo-9,11-dioxa-3,6-diazahexadecan-16-oate]",69,68.3,73.4,84,8
